Assay results reported in patent US10029984B2, “Mono- or di-substituted indole derivatives as dengue viral replication inhibitors” (Janssen Pharmaceuticals, Inc., priority 2015, dated 2018).

Legend:
[1] = system: DENV-2 16681 strain; test: DENV-2 antiviral assay (eGFP-labeled virus in Vero cells); format: cell-based, Dengue virus; details: DENV-2 16681 eGFP, MOI 0.5, 3 days, listed as 10B*
Procedure, shortened: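 Vero cells were pre-plated with compound overnight, then infected with eGFP-labeled DENV-2 16681 at MOI 0.5 and incubated 3 days at 37 °C. eGFP fluorescence read by automated microscopy; 9-point 4-fold dilutions (25 μM–0.00038 μM final) in quadruplicate, EC50 by linear interpolation versus virus and cell controls.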

[2] = Chiral stability at pH 7.4 (enantiomeric excess by Chiral SFC after incubation); format: physicochemical; details: buffered solution pH 7.4, 5 μM
Method: The chiral stability of Enantiomer 10B (R=OMe) was evaluated by determination of the enantiomeric excess (ee %) after incubation for 24 h and 48 h in a buffered solution at pH 7.4 at 40° C. and 60° C. To assess the influence of the methoxy-substituent of Enantiomer 10B (R=OMe) on the stability against racemization, the chiral stability of Enantiomer 10′B (R=H) was tested under the same conditions. To this end, 5 μM buffered (pH=7.4) solutions of 10B and 10′B were prepared by mixing 25 μL of a 100 μM solution of 10B and 10′B in DMSO with 475 μL aqueous buffer pH 7.4. Samples were taken 24 h and 48 h after incubation at 40° C. and 60° C. The analytical samples were analyzed by Chiral SFC (MS detection) and the chiral purity was expressed as the enantiomeric excess (ee %=% enantiomer B−% enantiomer A).

Question: What does the source list for `COc1cc(NC(C(=O)c2c[nH]c3cc(OC)c(C)cc23)c2ccc(F)cc2OC)cc(S(C)(=O)=O)c1` (single isomer, unassigned) [Enantiomer 10B, 2-(4-fluoro-2-methoxyphenyl)-2-((3-methoxy-5-(methylsulfonyl)phenyl)amino)-1-(6-methoxy-5-methyl-1H-indol-3-yl)ethanone]?
Answer: EC50 [1]: 0.67 nM; ee % ([2]; 40° C., 24 h): 100%; ee % ([2]; 40° C., 48 h): 100%; ee % ([2]; 60° C., 24 h): 97%; ee % ([2]; 60° C., 48 h): 97%
